Results reported in PubChem BioAssay (NCI).
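Values below derive from 48-hour exposures of cells grown in 96-well plates, with endpoints linearly interpolated between the two concentrations bracketing the appropriate inhibition level. TGI: concentration producing complete growth inhibition.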

What was measured:
Test in all cases: NCI-60 cell line screen, 48 h
[1] = tested on: SF-295 CNS
[2] = tested on: NCI-H23 lung
[3] = tested on: HCC-2998 colon
[4] = tested on: T-47D breast
[5] = tested on: LOX IMVI melanoma
[6] = tested on: IGROV1 ovarian
[7] = tested on: NCI-H226 lung
[8] = tested on: OVCAR-4 ovarian
[9] = tested on: CAKI-1 renal
[10] = tested on: BT-549 breast
[11] = tested on: MALME-3M melanoma
[12] = tested on: ACHN renal
[13] = tested on: HCT-15 colon
[14] = tested on: U251 CNS
[15] = tested on: SK-MEL-5 melanoma
[16] = tested on: 786-0 renal
[17] = tested on: SK-MEL-28 melanoma
[18] = tested on: A498 renal
[19] = tested on: A549 NSCLC
[20] = tested on: PC-3 prostate
[21] = tested on: NCI/ADR-RES ovarian
[22] = tested on: MDA-MB-231 breast
[23] = tested on: OVCAR-8 ovarian
[24] = tested on: SNB-19 CNS
[25] = tested on: MCF7 breast
[26] = tested on: SNB-75 CNS
[27] = tested on: SK-OV-3 ovarian
[28] = tested on: SN12C renal
[29] = tested on: EKVX NSCLC
[30] = tested on: UACC-257 melanoma
[31] = tested on: COLO 205 colon
[32] = tested on: MDA-MB-435
[33] = tested on: HOP-62 NSCLC
[34] = tested on: OVCAR-5 ovarian
[35] = tested on: MDA-N
[36] = tested on: SK-MEL-2 melanoma
[37] = tested on: RPMI-8226 leukemia
[38] = tested on: M14 melanoma
[39] = tested on: SF-539 CNS
[40] = tested on: TK-10 renal
[41] = tested on: KM12 colon
[42] = tested on: UO-31 renal
[43] = tested on: SW-620 colon
[44] = tested on: HCT-116 colon
[45] = tested on: RXF 393 renal
[46] = tested on: CCRF-CEM leukemia
[47] = tested on: OVCAR-3 ovarian
[48] = tested on: NCI-H522 lung
[49] = tested on: NCI-H460 lung
[50] = tested on: SF-268 CNS
[51] = tested on: HS 578T breast
[52] = tested on: K-562 leukemia
[53] = tested on: HOP-92 NSCLC
[54] = tested on: HL-60(TB) leukemia
[55] = tested on: HT29 colon
[56] = tested on: DU-145 prostate
[57] = tested on: UACC-62 melanoma

In the case of CC(C)=CC(C)C(C(O)CCC1(c2ccoc2)OCCO1)S(=O)(=O)c1ccccc1 (centres undefined), the TGI [1] is reported as greater than 100 µM, the TGI [2] is reported as greater than 100 µM and the TGI [3] is reported as greater than 100 µM. For the same compound, the TGI [4] was greater than 100 µM, the TGI [5] was greater than 100 µM and the TGI [6] was greater than 100 µM. It also gave a TGI [7] greater than 100 µM, a TGI [8] greater than 100 µM and a TGI [9] greater than 100 µM. For the same compound, the TGI [10] was greater than 100 µM, the TGI [11] was greater than 100 µM and the TGI [12] was greater than 100 µM. It also gave a TGI [13] greater than 100 µM, a TGI [14] greater than 100 µM and a TGI [15] greater than 100 µM. The TGI [16] was greater than 100 µM, the TGI [17] was greater than 100 µM and the TGI [18] was greater than 100 µM. The TGI [19] was greater than 100 µM, the TGI [20] was greater than 100 µM and the TGI [21] was greater than 100 µM. It also gave a TGI [22] greater than 100 µM, a TGI [23] greater than 100 µM and a TGI [24] greater than 100 µM. For the same compound, the TGI [25] was greater than 100 µM, the TGI [26] was greater than 100 µM and the TGI [27] was greater than 100 µM. For the same compound, the TGI [28] was greater than 100 µM, the TGI [29] was greater than 100 µM and the TGI [30] was greater than 100 µM. The TGI [31] was greater than 100 µM, the TGI [32] was greater than 100 µM and the TGI [33] was greater than 100 µM. The TGI [34] was greater than 100 µM, the TGI [35] was greater than 100 µM and the TGI [36] was greater than 100 µM. The TGI [37] was greater than 100 µM, the TGI [38] was greater than 100 µM and the TGI [39] was greater than 100 µM. For the same compound, the TGI [40] was greater than 100 µM, the TGI [41] was greater than 100 µM and the TGI [42] was greater than 100 µM. For the same compound, the TGI [43] was greater than 100 µM, the TGI [44] was greater than 100 µM and the TGI [45] was greater than 100 µM. For the same compound, the TGI [46] was greater than 100 µM, the TGI [47] was greater than 100 µM and the TGI [48] was greater than 100 µM. For the same compound, the TGI [49] was greater than 100 µM and the TGI [50] was greater than 100 µM.
[N-]=[N+]=NC1=NNC2(C(=O)N1)c1ccccc1-c1ccccc12 showed a TGI [1] greater than 100 µM, a TGI [2] greater than 100 µM and a TGI [3] greater than 100 µM. The TGI [5] was greater than 100 µM, the TGI [6] was greater than 100 µM and the TGI [7] was greater than 100 µM. It also gave a TGI [8] greater than 100 µM, a TGI [9] greater than 100 µM and a TGI [10] greater than 100 µM. The TGI [11] was 33.3 µM, the TGI [12] was greater than 100 µM and the TGI [51] was greater than 100 µM. For the same compound, the TGI [13] was greater than 100 µM, the TGI [52] was greater than 100 µM and the TGI [14] was greater than 100 µM. For the same compound, the TGI [53] was greater than 100 µM, the TGI [54] was greater than 100 µM and the TGI [15] was greater than 100 µM. It also gave a TGI [55] greater than 100 µM, a TGI [16] greater than 100 µM and a TGI [17] greater than 100 µM. For the same compound, the TGI [18] was greater than 100 µM, the TGI [19] was greater than 100 µM and the TGI [56] was greater than 100 µM. It also gave a TGI [20] greater than 100 µM, a TGI [21] greater than 100 µM and a TGI [22] greater than 100 µM. The TGI [23] was greater than 100 µM, the TGI [24] was greater than 100 µM and the TGI [25] was greater than 100 µM. For the same compound, the TGI [26] was greater than 100 µM, the TGI [27] was greater than 100 µM and the TGI [28] was greater than 100 µM. The TGI [29] was greater than 100 µM, the TGI [30] was greater than 100 µM and the TGI [31] was greater than 100 µM. It also gave a TGI [32] of 33.1 µM, a TGI [33] greater than 100 µM and a TGI [34] greater than 100 µM. The TGI [35] was greater than 100 µM, the TGI [36] was greater than 100 µM and the TGI [38] was greater than 100 µM. It also gave a TGI [39] greater than 100 µM, a TGI [40] greater than 100 µM and a TGI [42] greater than 100 µM. It also gave a TGI [43] greater than 100 µM, a TGI [44] of 27.4 µM and a TGI [45] greater than 100 µM. For the same compound, the TGI [46] was greater than 100 µM, the TGI [47] was greater than 100 µM and the TGI [57] was greater than 100 µM. For the same compound, the TGI [48] was greater than 100 µM, the TGI [49] was greater than 100 µM and the TGI [50] was greater than 100 µM.
